The values below are quoted from earlier work in patent publication US20130096948A1, “METHODS FOR DIAGNOSIS, PROGNOSIS AND TREATMENT” (Nodality, Inc., priority 2009, published 2013).

SMILES strings stand for the structures. Read-outs that look alike come from different tables or passages of the source.

On to `COc1cccc2c1C(=O)c1c(O)c3c(c(O)c1C2=O)C[C@@](O)(C(C)=O)C[C@@H]3O[C@H]1C[C@H](N)[C@H](O)[C@H](C)O1` [Daunorubicin], for which the peak plasma concentration is, setting by setting: (Daunorubicin at 25 mg/m2) 50 ng/mL; (Daunorubicin at 50 mg/m2) 200 ng/mL.
As to `Nc1ccn([C@@H]2O[C@H](CO)[C@@H](O)[C@@H]2O)c(=O)n1` [Cytarabine], the peak plasma concentration is 2 µM (high dose Cytarabine, 3 g/m2) and “approximately 40 nM” (standard dose of Cytarabine, 100 mg/m2).
